Test results as given in patent publication US9301955B2, “Tritoqualine for use in the treatment of cystic fibrosis” (ORPHAN SYNERGY EUROPE-PHARMA, priority 2012, dated 2016).
Ends that are not written are not given here.

System: IL8 release, epithelial cells from human gingival mucosa
Experiment: IL8 release in human ex vivo gingival mucosa model stimulated by substance P
Type: cell-based
Conditions: gingival mucosa stimulated by substance P 10 microM alone; measured at 24 hours; versus 29.6 ng/ml in control group (p=0.04)
Procedure: Tritoqualin effect on IL8 release on a human ex vivo model (epithelial Cells from Human gingival extraction maintained in survival) after stimulation of IL8 release
13 fragments of gingival mucous from different human donors (removal of wisdom teeth of healthy volunteers) were maintained in survival ex vivo. To this end, fragments were placed in inserts themselves willing suspended above the culture wells. The nutrient medium (antibiotics, FCS—Fetal Calf Serum) was added to the bottom of the wells, passage is carried out by slow diffusion of the two compartments by means of a porous membrane ([…]). The whole was maintained in organ culture for 24 hours in an oven to a humid atmosphere at 37° C. in the presence of 5% CO2.
Gingival inflammation was achieved by stimulation of the mucosa with a neurotransmitter, substance P (10 microM) deposited in the culture medium. Tritoqualine was added to the culture medium (systemic effect) at a concentration of 20 microM, 10 minutes after application of substance P. […]
The inflammatory cytokine, IL8, a potent chemo attractant of neutrophils, was measured in culture supernatants, 24 hours after deposition of substance P.
IL8 was measured in ng/ml by immunoassays (kits Gen Probe, France) with a spectrophotometer at 450 nm.

“Substance P: neurotransmitter, an established pro-inflammatory compound used to stimulate IL8 release (RPKPQQFFGLM-NH2; ends and bridges not checked; UniProt P20366 58-68, looked up)” was tested, and the “IL8 release in culture supernatant” value was 31.7 ng/mL.
